Test system: LG0703-F948-PDC complex spheroid viability
Assay: Anticancer human tumor LG0703-F948-PDC patient-derived lung adenocarcinoma cell line growth inhibition
Conditions: for IC50: curve of first compound; for viability, T/C: stronger effect = lower value
Procedure, shortened: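 Complex spheroids of tumor cells with HUVEC and human MSCs, exposed to iadademstat combined with other agents. Each agent tested in half-log steps from near clinical Cmax (else 10 microM top), DMSO ≤0.25%.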

[1] = second compound 0.1 µM, first compound 0.0316 µM
[2] = second compound 0.1 µM, first compound 0.1 µM
[3] = second compound 0.1 µM, first compound 0.316 µM
[4] = second compound 0.1 µM, first compound 1 µM
[5] = second compound 0.316 µM, first compound 0.0316 µM
[6] = second compound 0.316 µM, first compound 0.1 µM
[7] = second compound 0.316 µM, first compound 0.316 µM
[8] = second compound 0.316 µM, first compound 1 µM
[9] = second compound 1 µM, first compound 0.0316 µM
[10] = second compound 1 µM, first compound 0.1 µM
[11] = second compound 1 µM, first compound 0.316 µM
[12] = second compound 1 µM, first compound 1 µM
[13] = second compound 3.16 µM, first compound 0.0316 µM
[14] = second compound 3.16 µM, first compound 0.1 µM
[15] = second compound 3.16 µM, first compound 0.316 µM
[16] = second compound 3.16 µM, first compound 1 µM
[17] = second compound 10 µM, first compound 0.0316 µM
[18] = second compound 10 µM, first compound 0.1 µM
[19] = second compound 10 µM, first compound 0.316 µM
[20] = second compound 10 µM, first compound 1 µM
[21] = second compound 0.1 µM, first compound 0.00949 µM
[22] = second compound 0.1 µM, first compound 0.03 µM
[23] = second compound 0.1 µM, first compound 0.0949 µM
[24] = second compound 0.1 µM, first compound 0.3 µM
[25] = second compound 0.316 µM, first compound 0.00949 µM
[26] = second compound 0.316 µM, first compound 0.03 µM
[27] = second compound 0.316 µM, first compound 0.0949 µM
[28] = second compound 0.316 µM, first compound 0.3 µM
[29] = second compound 1 µM, first compound 0.00949 µM
[30] = second compound 1 µM, first compound 0.03 µM
[31] = second compound 1 µM, first compound 0.0949 µM
[32] = second compound 1 µM, first compound 0.3 µM
[33] = second compound 3.16 µM, first compound 0.00949 µM
[34] = second compound 3.16 µM, first compound 0.03 µM
[35] = second compound 3.16 µM, first compound 0.0949 µM
[36] = second compound 3.16 µM, first compound 0.3 µM
[37] = second compound 10 µM, first compound 0.00949 µM
[38] = second compound 10 µM, first compound 0.03 µM
[39] = second compound 10 µM, first compound 0.0949 µM
[40] = second compound 10 µM, first compound 0.3 µM
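Also: spheroids exposed to agents for seven days before readout.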
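For viability, T/C in this document: 100% = DMSO vehicle control wells as normalization base.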

CC1COCCN1c1cc(C2(S(C)(=N)=O)CC2)nc(-c2ccnc3[nH]ccc23)n1 (stereo not given) + NC1CCC(NC2CC2c2ccccc2)CC1
IC50 (second compound 0.1 µM): 4.99 µM | IC50 (second compound 0.316 µM): 4.8 µM | IC50 (second compound 1 µM): 5.73 µM | IC50 (second compound 3.16 µM): 4.93 µM | IC50 (second compound 10 µM): 4.13 µM | viability, T/C [1]: 107% | viability, T/C [2]: 108% | viability, T/C [3]: 103% | viability, T/C [4]: 94.4% | viability, T/C (second compound 0.1 µM, first compound 3.16 µM): 64% | viability, T/C (second compound 0.1 µM, first compound 10 µM): 28.4% | viability, T/C [5]: 111% | viability, T/C [6]: 112% | viability, T/C [7]: 94.8% | viability, T/C [8]: 96.3% | viability, T/C (second compound 0.316 µM, first compound 3.16 µM): 59.5% | viability, T/C (second compound 0.316 µM, first compound 10 µM): 30% | viability, T/C [9]: 113% | viability, T/C [10]: 104% | viability, T/C [11]: 99.6% | viability, T/C [12]: 100% | viability, T/C (second compound 1 µM, first compound 3.16 µM): 77.5% | viability, T/C (second compound 1 µM, first compound 10 µM): 23.8% | viability, T/C [13]: 122% | viability, T/C [14]: 118% | viability, T/C [15]: 117% | viability, T/C [16]: 96.4% | viability, T/C (second compound 3.16 µM, first compound 3.16 µM): 66% | viability, T/C (second compound 3.16 µM, first compound 10 µM): 25.5% | viability, T/C [17]: 131% | viability, T/C [18]: 129% | viability, T/C [19]: 110% | viability, T/C [20]: 88.1% | viability, T/C (second compound 10 µM, first compound 3.16 µM): 63.8% | viability, T/C (second compound 10 µM, first compound 10 µM): 14.2%

CCN(c1cc(-c2ccc(CN3CCOCC3)cc2)cc(C(=O)NCc2c(C)cc(C)[nH]c2=O)c1C)C1CCOCC1 + NC1CCC(NC2CC2c2ccccc2)CC1
IC50 (second compound 0.1 µM): > 3 µM | IC50 (second compound 0.316 µM): > 3 µM | IC50 (second compound 1 µM): > 3 µM | IC50 (second compound 3.16 µM): > 3 µM | IC50 (second compound 10 µM): > 3 µM | viability, T/C [21]: 105% | viability, T/C [22]: 106% | viability, T/C [23]: 96.2% | viability, T/C [24]: 108% | viability, T/C (second compound 0.1 µM, first compound 0.949 µM): 119% | viability, T/C (second compound 0.1 µM, first compound 3 µM): 128% | viability, T/C [25]: 107% | viability, T/C [26]: 130% | viability, T/C [27]: 106% | viability, T/C [28]: 112% | viability, T/C (second compound 0.316 µM, first compound 0.949 µM): 111% | viability, T/C (second compound 0.316 µM, first compound 3 µM): 112% | viability, T/C [29]: 128% | viability, T/C [30]: 116% | viability, T/C [31]: 113% | viability, T/C [32]: 133% | viability, T/C (second compound 1 µM, first compound 0.949 µM): 128% | viability, T/C (second compound 1 µM, first compound 3 µM): 127% | viability, T/C [33]: 124% | viability, T/C [34]: 131% | viability, T/C [35]: 144% | viability, T/C [36]: 138% | viability, T/C (second compound 3.16 µM, first compound 0.949 µM): 121% | viability, T/C (second compound 3.16 µM, first compound 3 µM): 141% | viability, T/C [37]: 120% | viability, T/C [38]: 131% | viability, T/C [39]: 134% | viability, T/C [40]: 118% | viability, T/C (second compound 10 µM, first compound 0.949 µM): 118% | viability, T/C (second compound 10 µM, first compound 3 µM): 105%

Nc1ncn(C2CC(O)C(CO)S2)c(=O)n1 (stereo not given) + NC1CCC(NC2CC2c2ccccc2)CC1
IC50 (second compound 0.1 µM): > 0.3 µM | IC50 (second compound 0.316 µM): > 0.3 µM | IC50 (second compound 1 µM): > 0.3 µM | IC50 (second compound 3.16 µM): > 0.3 µM | IC50 (second compound 10 µM): > 0.3 µM | viability, T/C (second compound 0.1 µM, first compound 0.000949 µM): 114% | viability, T/C (second compound 0.1 µM, first compound 0.003 µM): 117% | viability, T/C [21]: 107% | viability, T/C [22]: 120% | viability, T/C [23]: 113% | viability, T/C [24]: 99.9% | viability, T/C (second compound 0.316 µM, first compound 0.000949 µM): 124% | viability, T/C (second compound 0.316 µM, first compound 0.003 µM): 123% | viability, T/C [25]: 121% | viability, T/C [26]: 113% | viability, T/C [27]: 128% | viability, T/C [28]: 99.8% | viability, T/C (second compound 1 µM, first compound 0.000949 µM): 112% | viability, T/C (second compound 1 µM, first compound 0.003 µM): 115% | viability, T/C [29]: 118% | viability, T/C [30]: 122% | viability, T/C [31]: 123% | viability, T/C [32]: 104% | viability, T/C (second compound 3.16 µM, first compound 0.000949 µM): 121% | viability, T/C (second compound 3.16 µM, first compound 0.003 µM): 125% | viability, T/C [33]: 115% | viability, T/C [34]: 121% | viability, T/C [35]: 137% | viability, T/C [36]: 119% | viability, T/C (second compound 10 µM, first compound 0.000949 µM): 116% | viability, T/C (second compound 10 µM, first compound 0.003 µM): 126% | viability, T/C [37]: 115% | viability, T/C [38]: 107% | viability, T/C [39]: 113% | viability, T/C [40]: 108%

O=C(C=Cn1cnc(-c2cc(C(F)(F)F)cc(C(F)(F)F)c2)n1)NNc1cnccn1 + NC1CCC(NC2CC2c2ccccc2)CC1
IC50 (second compound 0.1 µM): < 0.00316 µM | IC50 (second compound 0.316 µM): < 0.00316 µM | IC50 (second compound 1 µM): 0.00915 µM | IC50 (second compound 3.16 µM): 0.029 µM | IC50 (second compound 10 µM): < 0.00316 µM | viability, T/C (second compound 0.1 µM, first compound 0.00316 µM): 45.3% | viability, T/C (second compound 0.1 µM, first compound 0.01 µM): 50.8% | viability, T/C [1]: 37.8% | viability, T/C [2]: 33% | viability, T/C [3]: 30.6% | viability, T/C [4]: 25.1% | viability, T/C (second compound 0.316 µM, first compound 0.00316 µM): 47.3% | viability, T/C (second compound 0.316 µM, first compound 0.01 µM): 47.5% | viability, T/C [5]: 43.8% | viability, T/C [6]: 31.8% | viability, T/C [7]: 33% | viability, T/C [8]: 33.9% | viability, T/C (second compound 1 µM, first compound 0.00316 µM): 56.6% | viability, T/C (second compound 1 µM, first compound 0.01 µM): 50.1% | viability, T/C [9]: 44.5% | viability, T/C [10]: 37.6% | viability, T/C [11]: 29.7% | viability, T/C [12]: 33.8% | viability, T/C (second compound 3.16 µM, first compound 0.00316 µM): 58.4% | viability, T/C (second compound 3.16 µM, first compound 0.01 µM): 57.2% | viability, T/C [13]: 48.3% | viability, T/C [14]: 41.1% | viability, T/C [15]: 32.8% | viability, T/C [16]: 30.2% | viability, T/C (second compound 10 µM, first compound 0.00316 µM): 41.7% | viability, T/C (second compound 10 µM, first compound 0.01 µM): 45.7% | viability, T/C [17]: 45.7% | viability, T/C [18]: 44.9% | viability, T/C [19]: 37.4% | viability, T/C [20]: 23.5%

From PubChem BioAssay AID1918952 (Molecular Pharmacology Branch, DTP, NCI, 2023)
